From publication PMC5958115, “A novel small molecule chaperone of rod opsin and its potential therapy for retinal degeneration” (Nature Communications, 2018) come the findings set out here.

One assay deals with mouse P23H-opsin mutant (Mus musculus, UniProt P15409, P23H). The experiment in a line: β-Gal fragment complementation assay: rescue of P23H opsin transport from ER to plasma membrane, U2OS(PLC-EA/P23H-PK) cells. It is filed as cell-based. Conditions: for β-Gal fragment complementation assay Activity score (%) Max (Exp) / β-Gal fragment complementation assay Activity score (%) Max (fit) / Efficacy: 24 h, 5 µM 9-cis-retinal = 100%; for β-Gal fragment complementation assay Activity score (%) Max (Exp): experimental maximum; for β-Gal fragment complementation assay Activity score (%) Max (fit) / Efficacy: from curve fitting; for EC50: 24 h preincubation, activity standardized to 5 µM 9-cis-retinal as 100%, Hill fit, read-out: β-Gal fragment complementation assay Activity score (%) EC50. The text has this: U2OS(PLC-EA/P23H-PK) cells. A U2OS stable cell line was generated by DiscoveRx, Inc. (Fremont, CA, USA) for the β-Gal fragment complementation assay used in the small-molecule HTS for rescue of P23H-opsin transport. U2OS cells that continually express P23H-PK and PLC-EA fusion proteins were generated. Briefly, this small subunit of β-Gal (PK fragment) was fused to the C-terminal of the mouse P23H-opsin mutant, while the large EA fragment, a subunit of β-Gal, was fused with PLC, a plasma membrane-anchored peptide. Both constructs were subcloned by DicoveRx, Inc. and transferred into U2OS cells by viral infections. Positive clones were selected under treatment with hygromycin and geneticin.
Briefly, U2OS(PLC-EA /P23H-PK) cells were suspended in assay medium at 3 × 10^5 cells mL^−1. The cell suspension was dispensed into 384-well plates (Greiner Bio-one, Monroe, NC, USA) at 20 µL per well, with a Multidrop dispenser (Thermo Scientific, Waltham, MA, USA). Plates with cells then were centrifuged at 200×g for 15 s before incubation at 37 °C with 5% CO2. Plates were removed 24 h later for treatment with tested compounds. A total of 248 plates containing 79,080 compounds from three small-molecule libraries were paired with an equal number of assay plates with cultured cells. Owing to a limited capacity, these plates were assayed in seven batches. An average of 56.3 nL of 10 mM compound in DMSO was dispensed into each well from column 3 to 22 of paired assay plates using a 50 nL 384-pintool system, such that the final concentration of each compound was 22.52 µM on average. […] Each assay plate was shaken for 5 s before further incubation at 37 °C with 5% CO2. After 24 h, assay plates were removed, and each well was incubated with 25 µL of 1× Gal-Screen assay buffer (1:24 substrate-buffer ratio). Assay plates were incubated in the dark for 60–90 min, and luminescence was read from each assay plate with an Envision microplate reader (PerkinElmer) during a 0.1 s per well integration time. The mean and s.d. of readouts in column 2 of each plate were calculated as Mean0% and SD0%, whereas the average and s.d. of readouts in column 23 were calculated as Mean100% and SD100%. Eq. 1: Activity scores (%) = (RLUcp − Mean0%)/(Mean100% − Mean0%) × 100%, where RLUcp is the relative luminescence unit derived for cells treated with a compound. Eq. 2: Z′-factor = 1–3 × (SD0% + SD100%)/(Mean100% − Mean0%)[32]; Eq. 3: signal-to-background (S/B) ratio = Mean100%/Mean0%. Activities of all tested compounds were registered with their compound ID by GeneData Screener (Genedata, Basel, Switzerland) and Pipeline Pilot software (Accelrys, San Diego, CA, USA). Hits, cherry-picked from a separate stock dose-dependent activity test, were selected with an activity score cutoff at 20%. Activity of each hit was tested again with the β-Gal fragment complementation assay in a 10-dose series with each dose tested in triplicate. The 10 doses tested were 80, 40, 20, 10, 5, 2.5, 1.25, 0.625, 0.313, and 0.156 µM. Dose-dependent curves of each hit compound were fitted with GeneData and Origin software.
Detailed synthetic steps are described in Supplementary Note and Supplementary Fig. 9. […] YC-002-YC-021 were purchased from commercial vendors including Enamine LLC (Monmouth Jct., NJ, USA), Matrix Scientific (Columbia, SC, USA) and Tokyo Chemical Industry Co., Ltd. (Portland, OR, USA). […] Activities of YC compounds were tested with the β-Gal fragment complementation assay, as described in a prior section. All YC compounds were tested at 10 doses, each in triplicate: 80, 40, 20, 10, 5, 2.5, 1.25, 0.625, 0.313, and 0.156 µM.

A further assay deals with T1, mouse P23H opsin (Mus musculus, UniProt P15409, P23H).
T1 construct: expressed in transfected cells
The experiment in a line: High-content imaging analysis of P23H opsin immunostaining in NIH3T3-(P23H opsin/GFP) cells. Format: cell-based. The following applies: ratio of P23H rod opsin fluorescence on plasma membrane to whole cell; for EC50: read-out: Immunostaining HCS MEM-Total ratio EC50. Here is the method: To characterize the effect of active compounds on the localization of P23H-mutant opsin in mammalian cells, an image-based assay was used with cells immunostained for WT or P23H-mutant opsin protein[18]. Briefly, NIH3T3-(P23H opsin/GFP) or NIH3T3-(WT-opsin/GFP) cells were seeded at 5000 cells per well in a 384-well cell-carrier plate (PerkinElmer) and incubated at 37 °C with 5% CO2 for 2 h. Cells were treated with compounds as described for the β-Gal fragment complementation assay and incubated in assay medium for 24 h. The assay medium then was aspirated, and cells were fixed with 4% paraformaldehyde at 20 µL per well for 20 min at RT. Cells were immunostained in one of two ways: cell membranes were either permeabilized with 0.1% Triton X-100 for 15 min or left intact and then were incubated with 10% goat serum (Life Technologies). To detect opsin on the cell plasma membrane only, intact cells were immunostained with 20 µL per well of 20 µg mL^−1 B6-30 anti-rhodopsin antibody that recognizes the N-terminal epitope on the extracellular side of rhodopsin. To detect total opsin, cells were permeabilized with Triton X-100 and immunostained with 50 µg mL^−1 1D4 anti-rhodopsin antibody specific for the C-terminal epitope on the intracellular side of rhodopsin. Opsin immunostaining was visualized by incubating cells with 5 µg mL^−1 Cy3-conjugated goat anti-mouse IgG antibody. Three washes with phosphate-buffered saline (PBS: 10 mM Na2HPO4, 1.8 mM KH2PO4, pH 7.4, 137 mM NaCl, and 2.7 mM KCl) were performed between each step of incubation with antibody. In the last wash with PBS, DAPI was added to each well at 300 nM. Fluorescence images were obtained with the Operetta High Content Imaging System (PerkinElmer) using a ×20 long objective. Five fields were taken of each well for cell images using three channels for fluorescence: GFP (100 ms), Cy3 (300 ms), and DAPI (50 ms). Images were analyzed with Acapella software from the Columbus data storage and analysis system (PerkinElmer)[18]. For cells immunostained with opsin on the non-permeabilized cell membrane only, an average of total fluorescence intensity of Cy3 per cell was used to quantify opsin in each well of the 384-well plate. For cells immunostained with opsin in permeabilized whole cells, an average ratio of Cy3 intensity on the cell plasma membrane (PM) to that of the entire cell (opsin ratio PM-to-total) was calculated for each well of a 384-well plate to quantify opsin transport to the plasma membrane. The plasma membrane was defined within ± 5% of the cell border.

The target of another assay is T2, P23H opsin (Mus musculus, UniProt P15409, P23H).
T2 construct: expressed in transfected cells
Put plainly: Immunoblot of P23H opsin glycosylation in NIH3T3 cell lysates. Conditions: P23H opsin. Set-up: key to Improved glycosylation: n = no; y = yes. Format: cell-based. The procedure:
NIH3T3-(P23H opsin/GFP) or NIH3T3-(WT-opsin/GFP) cells were seeded in a 48-well plate (Corning Costar) at 3.2 × 10^5 cells per well and incubated at 37 °C with 5% CO2 for 2 h. One hundred-µL of assay medium containing a compound at 5× its final concentration was added to each well. The plate was gently shaken for 5 s before further incubation at 37 °C with 5% CO2 for 24 h. The assay medium then was aspirated, and cells were lysed with 100 µL per well PBS containing 0.1% Triton X-100 and complete protease inhibitor cocktail (Roche, Basel, Switzerland) followed by sonication for 3 s. Protein concentrations were determined with the Bradford assay. For PNGaseF catalyzed deglycosylation, 3 µL of PNGaseF (1500 U, NEB) was added to the cell lysate and the mixture was incubated at room temperature for 1 h before immunoblotting. For NIH3T3-(P23H opsin/GFP) cells, 15 µg of total protein were loaded per well onto an SDS-polyacrylamide gel; whereas for NIH3T3-(WT-opsin/GFP) cells, 5 µg of total protein was loaded per well. Opsin protein was immunostained with 0.2 μg mL^−1 horseradish peroxidase-conjugated 1D4 anti-rhodopsin antibody. Band intensities were measured with ImageJ software (http://imagej.nih.gov/ij/; National the Institutes of Health, Bethesda, MD, USA) and normalized to a glyceraldehyde 3-phosphate dehydrogenase (GAPDH) loading control. Full scans of immunoblotted membranes are shown in Supplementary Fig. 8.
On the technique in general: Immunoblotting shows a protein as a band on a membrane.

The target in assay [1] is bovine isorhodopsin (rod opsin regenerated with 9-cis-retinal), photoactivated (bovine) (UniProt P02699).
In assay [2] the target is bovine rod opsin in ROS disc membranes (bovine) (UniProt P02699).
Chain of bovine rod opsin in ROS disc membranes (bovine) (P02699 whole entry): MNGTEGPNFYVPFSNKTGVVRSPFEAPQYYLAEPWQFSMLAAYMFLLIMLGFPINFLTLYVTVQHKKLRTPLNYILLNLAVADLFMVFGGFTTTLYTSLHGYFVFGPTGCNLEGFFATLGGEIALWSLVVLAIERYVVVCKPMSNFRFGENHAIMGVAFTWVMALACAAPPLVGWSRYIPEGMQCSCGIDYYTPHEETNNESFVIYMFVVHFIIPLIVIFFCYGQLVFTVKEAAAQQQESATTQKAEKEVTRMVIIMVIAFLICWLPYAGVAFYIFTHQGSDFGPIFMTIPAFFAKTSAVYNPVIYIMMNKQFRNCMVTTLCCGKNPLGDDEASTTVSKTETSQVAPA

Chain of Gt (P04695 whole entry, looked up): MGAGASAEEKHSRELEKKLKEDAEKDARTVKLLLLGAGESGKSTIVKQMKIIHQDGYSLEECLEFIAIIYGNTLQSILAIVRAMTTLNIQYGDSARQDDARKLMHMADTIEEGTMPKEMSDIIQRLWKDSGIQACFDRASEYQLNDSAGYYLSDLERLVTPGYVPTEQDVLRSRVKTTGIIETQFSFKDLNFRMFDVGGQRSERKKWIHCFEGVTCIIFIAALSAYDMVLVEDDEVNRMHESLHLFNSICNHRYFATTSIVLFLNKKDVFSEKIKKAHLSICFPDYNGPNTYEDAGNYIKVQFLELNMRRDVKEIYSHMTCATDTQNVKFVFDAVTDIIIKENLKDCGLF
Chain of bovine isorhodopsin (rod opsin regenerated with 9-cis-retinal), photoactivated (bovine) (P02699 whole entry): as the sequence (P02699 whole entry) above

`O=C(NCCCOc1cccc2cccnc12)c1cc(-c2ccccc2)on1` [Compound F5875-0200]: at mouse P23H-opsin mutant, the “β-Gal fragment complementation assay Activity score (%) Max (Exp)” value was determined as 31.8%, the “β-Gal fragment complementation assay Activity score (%) Max (fit) / Efficacy” value is 51.6% and the EC50 is 25 µM. In addition, at mouse P23H opsin, the “Immunostaining HCS MEM-Total ratio Max (fit)” value was determined as 0.041 and the EC50 is recorded as 6.2 µM. The Improved glycosylation entry on P23H opsin is listed as “n”.
Turning to `O=C(NCCCn1cccc1)c1cc(-c2ccccc2)on1` [Compound F5937-0207], at mouse P23H-opsin mutant, the “β-Gal fragment complementation assay Activity score (%) Max (Exp)” value was 32.8%, the “β-Gal fragment complementation assay Activity score (%) Max (fit) / Efficacy” value is 37.3% and the EC50 amounted to 8.38 µM. Moreover, on mouse P23H opsin, the “Immunostaining HCS MEM-Total ratio Max (fit)” value was 0.021 and the EC50 stood at 1.33 µM. For the same compound, the Improved glycosylation entry at P23H opsin is on record as “n”.
As to `O=C(NCC#CCN1CCCC1)c1cc(-c2ccccc2)on1` [Compound F6244-1415], at mouse P23H-opsin mutant, the “β-Gal fragment complementation assay Activity score (%) Max (Exp)” value was found to be 24.8%, the “β-Gal fragment complementation assay Activity score (%) Max (fit) / Efficacy” value is listed as 25.2% and the EC50 stood at 8.61 µM. For the same compound, at mouse P23H opsin, the “Immunostaining HCS MEM-Total ratio Max (fit)” value was 0.063 and the EC50 turned out to be 4.2 µM. The Improved glycosylation entry at P23H opsin is “n”.
Take `Cc1cc(OCC(=O)Nc2cc(N3CCOCC3)ncn2)cc(C)c1Cl` [Compound F6257-1860]: at mouse P23H-opsin mutant, the “β-Gal fragment complementation assay Activity score (%) Max (Exp)” value is on record as 211%, the “β-Gal fragment complementation assay Activity score (%) Max (fit) / Efficacy” value is listed as 234% and the EC50 turned out to be 10.7 µM. Besides, at mouse P23H opsin, the “Immunostaining HCS MEM-Total ratio Max (fit)” value was found to be 0.022 and the EC50 is 1.07 µM. Further, the Improved glycosylation entry at P23H opsin is reported as “n”.
As to “Gt (from UniProt P04695 1-350) (complex)”, in assay [1], the initial rate of Gt activation upon illumination (intrinsic Gtα fluorescence after addition of 300 µM GTPγS), isorhodopsin regenerated with 40 µM 9-cis-retinal alone is -4.6; the initial rate of Gt activation upon illumination (intrinsic Gtα fluorescence after addition of 300 µM GTPγS), isorhodopsin regenerated with 40 µM 9-cis-retinal and 40 µM YC-001 together was -4.9. Moreover, in assay [2], the initial rate of Gt activation (intrinsic Gtα fluorescence after addition of 300 µM GTPγS), opsin membranes treated with 40 µM YC-001 was -6.1; the initial rate of Gt activation (intrinsic Gtα fluorescence after addition of 300 µM GTPγS), opsin membranes treated with 40 µM YC-014 is -5.7; the initial rate of Gt activation (intrinsic Gtα fluorescence after addition of 300 µM GTPγS), opsin membranes treated with DMSO was -5.3.
